# Data as given in patent US11214803B2, “Modulators of YAP1 expression” (Ionis Pharmaceuticals, Inc., priority 2019, dated 2022).
# Strand notation (5' to 3'): a small letter for the sugar, then the base; units joined by * are phosphorothioate-linked, units joined directly phosphodiester-linked; [ ] holds rarer units or linkages, { } end groups; capitals alone tell only the bases. k = constrained ethyl (cEt); [5mC] = 5-methylcytosine; d = 2'-deoxy (DNA)
# Tested on: Yap1 mRNA
# Experiment: Antisense inhibition of human Yap1 in A-431 cells by cEt gapmers, single dose (Example 1, RTS4814)
# Type: cell-based
# Protocol: Modified oligonucleotides were designed to target a Yap1 nucleic acid and were tested for their effect on Yap1 mRNA level in vitro. The modified oligonucleotides were tested in a series of experiments that had similar culture conditions. Cultured A-431 cells at a density of 5,000 cells per well were treated using free uptake with 2,000 nM of modified oligonucleotide. After a treatment period of approximately 48 hours, RNA was isolated from the cells and Yap1 mRNA levels were measured by quantitative real-time RTPCR. Human primer probe set RTS4814 (forward sequence […], designated herein as SEQ ID NO.: 11; reverse sequence […], designated herein as SEQ ID NO.: 12; probe sequence […], designated herein as SEQ ID NO.: 13) was used to measure mRNA levels. Yap1 mRNA levels were normalized to total RNA content, as measured by RIBOGREEN®. Results are presented in the tables below as percent control of the amount of Yap1 mRNA relative to untreated control cells (% UTC). The modified oligonucleotides with percent control values marked with an asterisk (*) target the amplicon region of the primer probe set. Additional assays may be used to measure the potency and efficacy of the modified oligonucleotides targeting the amplicon region.
# The newly designed modified oligonucleotides in the Tables below were designed as 3-10-3 cEt gapmers. The gapmers are 16 nucleosides in length, wherein the central gap segment comprises of ten 2′-deoxynucleosides and is flanked by wing segments on the 5′ direction and the 3′ direction comprising three nucleosides each. Each nucleoside in the 5′ wing segment and each nucleoside in the 3′ wing segment has a cEt sugar modification. The internucleoside linkages throughout each gapmer are phosphorothioate (P═S) linkages. All cytosine residues throughout each gapmer are 5-methylcytosines.
# “Start site” indicates the 5′-most nucleoside to which the gapmer is targeted in the human gene sequence. “Stop site” indicates the 3′-most nucleoside to which the gapmer is targeted human gene sequence. […] Activity of the modified oligonucleotide may be defined in a different experiment.
# [1] = Table 1, A-431 cells, free uptake, 2,000 nM, approximately 48 hours, RTS4814, Yap1 mRNA relative to untreated control cells
# [2] = Table 2, A-431 cells, free uptake, 2,000 nM, approximately 48 hours, RTS4814, Yap1 mRNA relative to untreated control cells
# [3] = A-431 cells, 5,000 cells per well, free uptake, 2,000 nM modified oligonucleotide, approx. 48 hours, RTS4814, normalized to RIBOGREEN, Table 3
Substance,YAP1 (% UTC) [1],YAP1 (% UTC) [2],other results
715508 (antisense k[5mC]*kT*kG*dT*dG*d[5mC]*dT*dG*dG*dG*dA*dT*dT*kG*kA*kT) [Compound 715508],24 % UTC,,
715539 (kA*kG*kA*dT*d[5mC]*dT*d[5mC]*dA*d[5mC]*dT*dG*dA*d[5mC]*k[5mC]*kT*kA; antisense) [Compound 715539],,102 % UTC,
715530 (kA*kA*k[5mC]*d[5mC]*dT*dG*dG*dT*dT*dT*dG*dT*dT*kT*k[5mC]*k[5mC]; antisense) [Compound 715530],,61 % UTC,
715584 (kG*kG*kT*d[5mC]*dT*dG*dG*dA*dA*d[5mC]*dA*dG*dA*kT*kT*kA; antisense) [Compound 715584],,96 % UTC,
715522 (kA*k[5mC]*kT*d[5mC]*dT*dT*d[5mC]*dT*dT*dT*d[5mC]*d[5mC]*dA*k[5mC]*kT*k[5mC]; antisense) [Compound 715522],,,YAP1 (% UTC) [3]: 87 % UTC
715525 (kT*kT*kA*d[5mC]*dT*dT*dT*dA*dA*dG*dA*dA*dG*kT*kA*kT; antisense) [Compound 715525],,,YAP1 (% UTC) [3]: 100 % UTC
715464 (antisense k[5mC]*k[5mC]*kA*d[5mC]*dA*dT*dT*dT*dG*dT*d[5mC]*d[5mC]*d[5mC]*kA*kG*kG) [Compound 715464],,89 % UTC,
715448 (antisense k[5mC]*kT*k[5mC]*dA*dA*dT*dT*d[5mC]*d[5mC]*dT*dG*dA*dG*kA*k[5mC]*kA) [Compound 715448],97 % UTC,,
715553 (kA*kG*kA*dA*dA*dT*dA*dG*dG*dA*dA*dG*dT*kT*kG*kT; antisense) [Compound 715553],90 % UTC,,
715591 (k[5mC]*kT*kT*dT*dG*dG*d[5mC]*dA*dG*dA*dG*dA*dT*kA*kA*kA; antisense) [Compound 715591],,,YAP1 (% UTC) [3]: 41 % UTC
715434 (antisense kT*k[5mC]*kT*dT*dG*dT*dT*d[5mC]*dT*dT*dA*dT*dG*kG*kT*kT) [Compound 715434],,31 % UTC,
715623 (antisense k[5mC]*k[5mC]*kT*dA*dA*dG*dA*dG*dT*dA*dA*dA*dA*kA*kA*kT) [Compound 715623],,113 % UTC,
715558 (k[5mC]*kA*kG*dG*dA*dA*dG*dT*dT*dA*dT*dT*d[5mC]*kA*kG*k[5mC]; antisense) [Compound 715558],,,YAP1 (% UTC) [3]: 37 % UTC
715449 (antisense kT*kT*k[5mC]*dT*d[5mC]*dA*dA*dT*dT*d[5mC]*d[5mC]*dT*dG*kA*kG*kA) [Compound 715449],,124 % UTC,
715445 (antisense k[5mC]*kA*kT*d[5mC]*d[5mC]*dT*dG*d[5mC]*dT*d[5mC]*d[5mC]*dA*dG*kT*kG*kT) [Compound 715445],87 % UTC,,
715474 (antisense k[5mC]*kT*kT*dT*d[5mC]*dT*dT*dT*dA*dT*d[5mC]*dT*dA*kG*k[5mC]*kT) [Compound 715474],,,YAP1 (% UTC) [3]: 78 % UTC
715557 (kG*kG*kA*dA*dG*dT*dT*dA*dT*dT*d[5mC]*dA*dG*k[5mC]*kA*kG; antisense) [Compound 715557],,46 % UTC,
715615 (antisense k[5mC]*kG*kG*dA*dT*dA*dA*dA*dA*dA*dT*dT*dA*k[5mC]*kT*kT) [Compound 715615],,,YAP1 (% UTC) [3]: 94 % UTC
715465 (antisense kG*kT*k[5mC]*d[5mC]*dA*d[5mC]*dA*dT*dT*dT*dG*dT*d[5mC]*k[5mC]*k[5mC]*kA) [Compound 715465],,,YAP1 (% UTC) [3]: 91 % UTC
715610 (antisense kG*kG*k[5mC]*dT*dG*dT*dG*dT*dA*dG*dG*d[5mC]*dT*kG*kA*k[5mC]) [Compound 715610],87 % UTC,,
715422 (kA*kT*kG*dT*dT*dG*dT*dT*dG*dT*d[5mC]*dT*dG*kA*kT*k[5mC]; antisense) [Compound 715422],,57 % UTC,
715562 (k[5mC]*kA*k[5mC]*dA*d[5mC]*dA*dA*d[5mC]*dT*d[5mC]*dA*dG*dA*k[5mC]*kA*kG; antisense) [Compound 715562],77 % UTC,,

Substance,YAP1 (% UTC) [1],YAP1 (% UTC) [2],other results
715545 (kA*k[5mC]*k[5mC]*dA*dA*d[5mC]*dT*dA*d[5mC]*dT*dT*dG*dA*kA*kG*kA; antisense) [Compound 715545],,87 % UTC,
715419 (kG*kA*k[5mC]*d[5mC]*dA*dG*dA*dA*dG*dA*dT*dG*dT*k[5mC]*kT*kT; antisense) [Compound 715419],,107 % UTC,
715556 (kA*kA*kG*dT*dT*dA*dT*dT*d[5mC]*dA*dG*d[5mC]*dA*kG*k[5mC]*kT; antisense) [Compound 715556],63 % UTC,,
715444 (antisense kT*k[5mC]*k[5mC]*d[5mC]*dT*dG*dT*dG*dG*dG*d[5mC]*dT*d[5mC]*kT*kG*kG) [Compound 715444],,,YAP1 (% UTC) [3]: 84 % UTC
715505 (antisense kA*kT*kT*dG*dG*dT*dT*dT*dA*dT*dT*dG*dT*kA*kA*kA) [Compound 715505],84 % UTC,,
715544 (k[5mC]*kA*kA*d[5mC]*dT*dA*d[5mC]*dT*dT*dG*dA*dA*dG*kA*kA*k[5mC]; antisense) [Compound 715544],128 % UTC,,
715516 (k[5mC]*k[5mC]*kT*dA*dT*dG*dA*dG*dT*d[5mC]*dA*dA*d[5mC]*k[5mC]*kT*kG; antisense) [Compound 715516],,,YAP1 (% UTC) [3]: 77 % UTC
715561 (k[5mC]*kA*k[5mC]*dA*dA*d[5mC]*dT*d[5mC]*dA*dG*dA*d[5mC]*dA*kG*kG*kG; antisense) [Compound 715561],,,YAP1 (% UTC) [3]: 69 % UTC
715488 (antisense k[5mC]*kT*kA*dT*dT*dA*d[5mC]*dT*dT*d[5mC]*dA*dT*dA*kG*k[5mC]*kT) [Compound 715488],,66 % UTC,
715548 (kA*kG*kT*dT*dG*dT*dT*dG*dA*d[5mC]*d[5mC]*dA*dA*k[5mC]*kT*kA; antisense) [Compound 715548],,117 % UTC,
715415 (k[5mC]*kG*kA*dA*d[5mC]*dA*dT*dG*d[5mC]*dT*dG*dT*dG*kG*kA*kG; antisense) [Compound 715415],24 % UTC,,
715443 (antisense kT*kT*k[5mC]*dA*d[5mC]*dT*dG*dG*dA*dG*d[5mC]*dA*d[5mC]*kT*k[5mC]*kT) [Compound 715443],,40 % UTC,
715629 (antisense kG*kA*kG*d[5mC]*d[5mC]*dT*dA*d[5mC]*d[5mC]*dT*dG*dA*d[5mC]*kA*kT*kT) [Compound 715629],,112 % UTC,
715630 (antisense kA*kA*kG*dA*dG*d[5mC]*d[5mC]*dT*dA*d[5mC]*d[5mC]*dT*dG*kA*k[5mC]*kA) [Compound 715630],,,YAP1 (% UTC) [3]: 94 % UTC
715496 (antisense k[5mC]*k[5mC]*k[5mC]*dT*dT*dG*dA*dA*dA*dA*dT*dA*dA*kG*kG*kG) [Compound 715496],124 % UTC,,
715607 (antisense kT*k[5mC]*kA*d[5mC]*d[5mC]*dA*dT*dA*dG*d[5mC]*dA*d[5mC]*dA*kG*kA*kA) [Compound 715607],116 % UTC,,
715437 (antisense k[5mC]*kA*kT*dG*dG*d[5mC]*dA*dA*dA*dA*d[5mC]*dG*dA*kG*kG*kG) [Compound 715437],,89 % UTC,
715587 (kT*kG*kA*dA*dA*dA*dG*dG*dT*d[5mC]*dT*dG*dG*kA*kA*k[5mC]; antisense) [Compound 715587],,79 % UTC,
715472 (antisense kT*kT*kT*dA*dT*d[5mC]*dT*dA*dG*d[5mC]*dT*dT*dG*kG*kT*kG) [Compound 715472],52 % UTC,,
715597 (antisense k[5mC]*kT*kG*dG*dT*dT*d[5mC]*dA*dT*dG*dG*d[5mC]*dT*kG*kA*kA) [Compound 715597],,,YAP1 (% UTC) [3]: 89 % UTC
715600 (antisense kA*kA*kT*dT*d[5mC]*d[5mC]*d[5mC]*dA*dA*dG*d[5mC]*dT*dA*k[5mC]*k[5mC]*k[5mC]) [Compound 715600],,,YAP1 (% UTC) [3]: 82 % UTC
715454 (antisense kA*kT*kA*dG*dG*dT*dG*d[5mC]*d[5mC]*dA*d[5mC]*dT*dG*kT*kT*kA) [Compound 715454],78 % UTC,,
